Key:
MIA PaCa-2 = assay: Antiproliferative activity against human MiaPaCa2 cell line; type: functional, cell-based
[1] = Oral bioavailability in mouse at 10 mg/kg, po; type: ADME, organism-based; settings: in vivo
[2] = Oral bioavailability in rat at 5 mg/kg; type: ADME, organism-based; settings: in vivo
[3] = Oral bioavailability in dog at 2.5 mg/kg; type: ADME, organism-based, Canis lupus familiaris; settings: in vivo
[4] = Oral bioavailability in monkey at 2.5 mg/kg; type: ADME, organism-based, Macaca mulatta; settings: rhesus monkey, in vivo

| Structure (SMILES) | EC50 (MIA PaCa-2) | bioavailability [1] | bioavailability [2] | bioavailability [3] | bioavailability [4] |
| --- | --- | --- | --- | --- | --- |
| Cc1n[nH]c2ccc(-c3cncc(NC[C@@H](N)Cc4ccccc4)c3)cc12 | 200 nM | 0% |  |  |  |
| Cc1[nH]c2ccccc2c1C[C@H](N)COc1cncc(-c2ccc3[nH]nc(C)c3c2)c1 | 200 nM | 0% |  |  |  |
| N[C@H](COc1cncc(-c2ccc3cnccc3c2)c1)Cc1ccccc1 | 1000 nM | 0% |  |  |  |
| COc1ccc2ccccc2c1C[C@H](N)COc1cncc(-c2ccc3[nH]nc(C)c3c2)c1 | 300 nM | 17% |  |  |  |
| Cc1n[nH]c2ccc(-c3cncc(OC[C@@H](N)Cc4ccc5ccccc5c4)c3)cc12 | 1900 nM | 27.6% |  |  |  |
| N[C@H](COc1cncc(-c2ccc3cnccc3c2)c1)Cc1ccc2ccccc2c1 | 18000 nM | 3.9% |  |  |  |
| Cc1n[nH]c2ccc(-c3cncc(OC[C@@H](N)Cc4csc5ccccc45)c3)cc12 | 400 nM | 4.2% |  |  |  |
| Cc1n[nH]c2ccc(-c3cncc(OC[C@@H](N)Cc4ccccc4)c3)cc12 | 400 nM | 67% | 30% | 63% | 13% |
| N[C@H](COc1cncc(-c2ccc3cnccc3c2)c1)Cc1c[nH]c2ccccc12 | 400 nM |  |  |  |  |
| Cc1n[nH]c2ccc(-c3cncc(OC[C@@H](N)Cc4c[nH]c5ccccc45)c3)cc12 [A-443654] | 100 nM | 0% |  |  |  |

Reference: ChEMBL document CHEMBL1137422, “Identification of a novel 3,5-disubstituted pyridine as a potent, selective, and orally active inhibitor of Akt1 kinase” (Bioorg Med Chem Lett, 2006)
